These results are taken from patent US20090012056A1, “Quinoline Compounds Capable of Binding the Cb2 and/or the 5-Ht6 Receptor” (GLAXO GROUP LIMITED, priority 2005, published 2009).

Counter-ions that a name gives are not always drawn.

T1 sequence (P34972 whole entry): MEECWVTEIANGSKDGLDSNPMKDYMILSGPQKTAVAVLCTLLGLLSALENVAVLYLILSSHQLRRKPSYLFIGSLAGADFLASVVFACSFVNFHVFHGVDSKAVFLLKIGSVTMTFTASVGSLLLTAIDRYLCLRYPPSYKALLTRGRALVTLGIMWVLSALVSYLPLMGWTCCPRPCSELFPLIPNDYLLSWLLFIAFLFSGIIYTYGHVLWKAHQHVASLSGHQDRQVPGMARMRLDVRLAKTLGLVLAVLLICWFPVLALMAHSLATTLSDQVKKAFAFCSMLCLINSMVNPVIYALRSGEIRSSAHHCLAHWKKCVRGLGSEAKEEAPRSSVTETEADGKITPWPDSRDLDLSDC

The experiment concerns the target T1, human cannabinoid CB2 receptor (Homo sapiens, UniProt P34972).
T1 construct: expressed in transfected cells; host or cells: Saccharomyces cerevisiae strain MMY23
Kind of experiment: Cannabinoid CB2 receptor agonist activity in yeast cells expressing the human CB2 receptor (FDGlu fluorescence). It counts as cell-based. Conditions: 24 hours at 30° C., read-out: pEC50 at the CB2 receptor (agonist activity) (converted). The source says: Yeast (Saccharomyces cerevisiae) cells expressing the human cannabinoid CB2 receptor were generated by integration of an expression cassette into the ura3 chromosomal locus of yeast strain MMY23. This cassette consisted of DNA sequence encoding the human CB2 receptor flanked by the yeast GPD promoter to the 5′ end of CB2 and a yeast transcriptional terminator sequence to the 3′ end of CB2. MMY23 expresses a yeast/mammalian chimeric G-protein alpha subunit in which the C-terminal 5 amino acids of Gpa1 are replaced with the C-terminal 5 amino acids of human Gαi1/23 (as described in Brown et al. (2000), Yeast 16:11-22). Cells were grown at 30° C. in liquid Synthetic Complete (SC) yeast media (Guthrie and Fink (1991), Methods in Enzymology, Vol. 194) lacking uracil, tryptophan, adenine and leucine to late logarithmic phase (approximately 6 OD600/ml).
Agonists were prepared as 10 mM solutions in DMSO. EC50 values (the concentration required to produce 50% maximal response) were estimated using 4 fold dilutions of between 3- and 5-fold (BiomekFX, Beckman) into DMSO. Agonist solutions in DMSO (1% final assay volume) were transferred into black microtitre plates from NUNC Greiner (384-well). Cells were suspended at a density of 0.2 OD600/ml in SC media lacking histidine, uracil, tryptophan, adenine and leucine and supplemented with 10 mM 3-aminotriazole, 0.1M sodium phosphate pH 7.0, and 120 μM fluorescein di-β-D-glucopyranoside (FDGlu). This mixture (50 ul per well) was added to agonist in the assay plates (Multidrop 384, Labsystems). After incubation at 30° C. for 24 hours, fluorescence resulting from degradation of FDGlu to fluorescein due to exoglucanase, an endogenous yeast enzyme produced during agonist-stimulated cell growth, was determined using a fluorescence microtitre plate reader (Tecan Spectrofluor or LJL Analyst excitation wavelength: 485 nm; emission wavelength: 535 nm). Fluorescence was plotted against compound concentration and iteratively curve fitted using a four parameter fit to generate a concentration effect value.
Efficacy (Emax) was calculated from the equation
Emax=Max[compound X]−Min[compound X]/Max[HU210]−Min[HU210]×100% • where Max[compound X] and Min[compound X] are the fitted maximum and minimum respectively from the concentration effect curve for compound X, and Max[HU210] and Min[HU210] are the fitted maximum and minimum respectively from the concentration effect curve for (6aR,10aR)-3-(1,1′-Dimethylheptyl)-6a,7,10,10a-tetrahydro-1-hydroxy-6,6-dimethyl-6H-dibenzo[b,d]pyran-9-methanol (HU210; available from Tocris). Equieffective molar ratio (EMR) values were calculated from the equation
EMR=EC50[compound X]/EC50[HU210] • Where EC50 [compound X] is the EC50 of compound X and EC50 [HU210] is the EC50 of HU210. • pEC50 is the negative log of the EC50.
Regarding `O=S(=O)(c1ccccc1)c1cnc2c(CN3CCC(F)(F)C3)cccc2c1` [Example 33, 8-[(3,3-Difluoro-1-pyrrolidinyl)methyl]-3-(phenylsulfonyl)quinoline hydrochloride], the EC50 is less than 1 µM.

On to `O=S(=O)(c1ccccc1)c1cnc2c(CN3CC(F)(F)C3)cccc2c1` [Example 34, 8-[(3,3-Difluoro-1-azetidinyl)methyl]-3-(phenylsulfonyl)quinoline hydrochloride], for which the EC50 was less than 1 µM.

`CC(c1cccc2cc(S(=O)(=O)c3ccccc3)cnc12)N1CC(F)(F)C1` (centres unmarked) [Example 35, 8-[1-(3,3-Difluoro-1-azetidinyl)ethyl]-3-(phenylsulfonyl)quinoline]: the EC50 was less than 1 µM.

Take `CC(c1cccc2cc(S(=O)(=O)c3ccccc3)cnc12)N1CCC(F)(F)C1` (centres unmarked) [Example 36, 8-[1-(3,3-Difluoro-1-pyrrolidinyl)ethyl]-3-(phenylsulfonyl)quinoline]: the EC50 was less than 1 µM.

For the compound `CC(c1cccc2cc(S(=O)(=O)c3ccccc3)cnc12)N1CCCC(F)(F)C1` (centres unmarked) [Example 37, 8-[1-(3,3-Difluoro-1-piperidinyl)ethyl]-3-(phenylsulfonyl)quinoline], the EC50 was less than 1 µM.

Take `O=S(=O)(c1ccc(F)cc1)c1cnc2c(CN3CCCC(F)(F)C3)cccc2c1` [Example 38, 8-[(3,3-Difluoro-1-piperidinyl)methyl]-3-[(4-fluorophenyl)sulfonyl]quinoline hydrochloride]: the EC50 was less than 1 µM.

Turning to `Cc1ccc(S(=O)(=O)c2cnc3c(CN4CCCC(F)(F)C4)cccc3c2)cc1` [Example 39, 8-[(3,3-Difluoro-1-piperidinyl)methyl]-3-[(4-methylphenyl)sulfonyl]quinoline hydrochloride], the EC50 was less than 1 µM.

With `O=S(=O)(c1ccc(Cl)cc1)c1cnc2c(CN3CCCC(F)(F)C3)cccc2c1` [Example 40, 3-[(4-Chlorophenyl)sulfonyl]-8-[(3,3-difluoro-1-piperidinyl)methyl]quinolinehydrochloride], the EC50 was less than 1 µM.

As to `O=S(=O)(c1ccc(Br)cc1)c1cnc2c(CN3CCCC(F)(F)C3)cccc2c1` [Example 41, 3-[(4-Bromophenyl)sulfonyl]-8-[(3,3-difluoro-1-piperidinyl)methyl]quinolinehydrochloride], the EC50 was less than 1 µM.

As for `COc1ccc(S(=O)(=O)c2cnc3c(CN4CCCC(F)(F)C4)cccc3c2)cc1Cl` [Example 42, 3-{[3-Chloro-4-(methyloxy)phenyl]sulfonyl}-8-[(3,3-difluoro-1-piperidinyl)methyl]quinolinehydrochloride], the EC50 was no more than 10 µM.

Turning to `COc1ccc(S(=O)(=O)c2cnc3c(CN4CCCC(F)(F)C4)cccc3c2)cc1NC(C)=O` [Example 43, N-[5-({8-[(3,3-Difluoro-1-piperidinyl)methyl]-3-quinolinyl}sulfonyl)-2-(methyloxy)phenyl]acetamidehydrochloride], the EC50 was less than 1 µM.

Take `COc1ccc(S(=O)(=O)c2cnc3c(CN4CCCC(F)(F)C4)cccc3c2)cc1OC` [Example 44, 3-{[3,4-Bis(methyloxy)phenyl]sulfonyl}-8-[(3,3-difluoro-1-piperidinyl)methyl]quinolinehydrochloride]: the EC50 is less than 1 µM.

Take `Cc1ccc(S(=O)(=O)c2cnc3c(CN4CCCC(F)(F)C4)cccc3c2)cc1Cl` [Example 45, 3-[(3-Chloro-4-methylphenyl)sulfonyl]-8-[(3,3-difluoro-1-piperidinyl)methyl]quinolinehydrochloride]: the EC50 is less than 1 µM.

Take `O=S(=O)(c1ccc2ccccc2c1)c1cnc2c(CN3CCCC(F)(F)C3)cccc2c1` [Example 46, 8-[(3,3-Difluoro-1-piperidinyl)methyl]-3-(2-naphthalenylsulfonyl)quinolinehydrochloride]: the EC50 is less than 1 µM.
